In US11564923B2, “Compounds and pharmaceutical compositions thereof for the treatment of inflammatory disorders” (Galapagos NV, priority 2017, dated 2023):
Where a name gives a salt, the structure may show the parent alone. Read-outs that look alike come from different tables or passages of the source.

Experiments:
[1] = target: T1, Recombinant human JAK1 (catalytic domain, amino acids 866-1154) (Homo sapiens, UniProt P23458); assay: JAK1 inhibition assay; assay type: biochemical; settings: read-out: JAK1 potency IC50
T1 construct: catalytic domain, amino acids 866-1154
T1 sequence (P23458 866-1154): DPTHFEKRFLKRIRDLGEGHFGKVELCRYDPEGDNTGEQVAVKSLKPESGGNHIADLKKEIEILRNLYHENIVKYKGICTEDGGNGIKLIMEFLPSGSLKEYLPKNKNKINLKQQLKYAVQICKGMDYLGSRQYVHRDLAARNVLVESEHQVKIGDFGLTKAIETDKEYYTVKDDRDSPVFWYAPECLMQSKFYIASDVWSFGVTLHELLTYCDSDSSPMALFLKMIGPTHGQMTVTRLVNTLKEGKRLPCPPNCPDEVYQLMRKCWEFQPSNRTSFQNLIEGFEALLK

[2] = target: T2, Recombinant human JAK2 (catalytic domain, amino acids 808-1132) (Homo sapiens, UniProt O60674); assay: JAK2 inhibition assay; assay type: biochemical; settings: read-out: JAK2 potency IC50; also: 0.7 µM ATP
T2 construct: catalytic domain, amino acids 808-1132
T2 sequence (O60674 808-1132): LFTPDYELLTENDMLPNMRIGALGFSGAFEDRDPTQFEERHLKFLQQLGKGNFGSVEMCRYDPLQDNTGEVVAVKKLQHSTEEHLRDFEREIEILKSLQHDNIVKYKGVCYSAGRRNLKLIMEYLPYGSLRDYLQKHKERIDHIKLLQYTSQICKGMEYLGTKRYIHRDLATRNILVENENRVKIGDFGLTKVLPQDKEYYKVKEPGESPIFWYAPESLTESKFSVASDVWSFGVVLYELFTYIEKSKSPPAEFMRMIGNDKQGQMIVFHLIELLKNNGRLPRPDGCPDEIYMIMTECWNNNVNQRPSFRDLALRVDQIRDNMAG

[3] = target: Recombinant human JAK3 catalytic domain (amino acids 781-1124) (Homo sapiens, UniProt P52333); assay: JAK3 inhibition assay; assay type: biochemical
Sequence of Recombinant human JAK3 catalytic domain (amino acids 781-1124) (P52333 781-1124): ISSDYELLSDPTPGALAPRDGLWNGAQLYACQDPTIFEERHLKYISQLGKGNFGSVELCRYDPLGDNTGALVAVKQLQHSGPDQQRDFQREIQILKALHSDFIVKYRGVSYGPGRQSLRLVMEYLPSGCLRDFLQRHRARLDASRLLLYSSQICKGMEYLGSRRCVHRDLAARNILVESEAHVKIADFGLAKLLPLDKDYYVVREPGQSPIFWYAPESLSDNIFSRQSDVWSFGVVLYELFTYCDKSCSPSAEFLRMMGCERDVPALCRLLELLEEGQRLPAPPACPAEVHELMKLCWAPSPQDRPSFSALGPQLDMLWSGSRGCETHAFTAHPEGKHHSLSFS
In short: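 Radiometric kinase reaction run 45 min at 30° C., stopped with phosphoric acid; activity as vehicle cpm minus 10 μM staurosporine cpm.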

[4] = target: T3, Recombinant human TYK2 catalytic domain (amino acids 871-1187) (Homo sapiens, UniProt P29597); assay: TYK2 radioactive assay polyGT substrate; assay type: biochemical; also: 0.1 µM ATP
T3 construct: catalytic domain (amino acids 871-1187)
T3 sequence (P29597 871-1187): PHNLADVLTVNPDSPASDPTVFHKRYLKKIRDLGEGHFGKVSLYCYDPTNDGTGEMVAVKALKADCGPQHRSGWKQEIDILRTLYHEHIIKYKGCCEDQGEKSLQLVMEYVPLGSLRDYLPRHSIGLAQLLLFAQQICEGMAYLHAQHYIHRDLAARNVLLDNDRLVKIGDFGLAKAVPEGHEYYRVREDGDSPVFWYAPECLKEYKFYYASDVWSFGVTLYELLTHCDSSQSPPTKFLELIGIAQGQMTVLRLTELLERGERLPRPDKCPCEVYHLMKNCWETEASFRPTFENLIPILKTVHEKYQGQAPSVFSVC
In short: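 Reaction at 30° C. for 120 min, ended with 150 mM phosphoric acid, washed, counted; percent inhibition scaled between vehicle and 10 μM staurosporine cpm.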

[5] = tested on: IL-12 activation of STAT4 in NK-92 cells; assay: IL-12 activation of STAT4 in NK-92 cells using MSD as readout; assay type: cell-based; settings: Homo sapiens
Description: IL-2 is added freshly to the medium with each medium refreshment step. Cells are cultured in a humidified incubator at 37° C. 5% CO2.
NK-92 cells are pre-incubated with test compounds or vehicle for 30 min at 37° C. 5% CO2. […] NK-92 cells are triggered with rhIL-12 for 45 min at 37° C. 5% CO2.
After 45 min of cytokine stimulation the cells are lysed by addition of 50 μL ice-cold lysis buffer (supplemented with the MSD kit). Plates are frozen at −80° C. for minimal 1 hour to lyse the cells completely. After thawing the levels of phospho-STAT4 are quantified using the Phospho-STAT4 (Tyr693) kit (MSD, Catalogue number K150PAD-2) according to the manufacturer's instructions. Electroluminescent signal is measured on the MSD reader.
The percentage inhibition is calculated as: […]
RLU (trigger/veh): Relative lumescent signal determined in presence of vehicle and trigger
RLU (test compound): Relative luminescent signal determined in presence of test compounds)
PIN values are plotted for compounds tested in dose-response and IC50 values are derived using LIMS Software applying non-linear regression (sigmoidal) curve fitting. The data are expressed as the average IC50 from different experiments.

[6] = tested on: IFNα activation of STAT1 in PBMC; assay: IFNα activation of STAT1 in PBMC; assay type: cell-based; settings: Homo sapiens
In short: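 Human PBMC, with red cells lysed by NH4Cl, were pre-treated with compound for 30 min at 37 °C and 5% CO2. They were then stimulated for 30 min with recombinant human IFNα at 5 ng/mL final.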

[7] = tested on: IL-12 activation of STAT4 in NK-92 cells; assay: IL-12 activation of STAT4 in NK-92 cells using AphaLISA SureFire technology; assay type: cell-based; settings: Homo sapiens
In short: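 NK-92 cells, starved of rhIL-2 overnight, were stimulated with rhIL-12 for 30 min at 37 °C with test compounds, then lysed. Phospho-STAT4 (Tyr693) was read by AlphaLISA SureFire. Percent inhibition versus the vehicle-plus-trigger signal was fitted by sigmoidal nonlinear regression to give IC50, averaged over experiments.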

[8] = NK92, NK-92 cells, rhIL-12 25 ng/mL, MSD readout, read-out: IL12 pSTAT4 IC50
[9] = IFNα activation of STAT1 in PBMC, average IC50, read-out: IFNα signaling inhibitory potency IC50
[10] = NK92, IL-12 activation of STAT4 in NK-92 cells, AlphaLISA SureFire, average IC50, read-out: IL12 pSTAT4 IC50

CN(c1cc(Nc2cc(N)ncn2)c2ncn(C)c2n1)c1c(F)cc(C#N)cc1C1CC1 [Compound 14, 4-{[7-(6-Amino-pyrimidin-4-ylamino)-3-methyl-3H-imidazo[4,5-b]pyridin-5-yl]-methyl-amino}-3-cyclopropyl-5-fluoro-benzonitrile]
IC50 [1]: 0.0914 µM | IC50 [2]: 0.017 µM | IC50 [3]: 0.279 µM | IC50 [4]: 0.00383 µM | IC50 [5, 8]: 1.5 µM

CCNC(=O)c1ccc(Nc2cc(Oc3cnc(C#N)cc3C)nc3c2ncn3C)cn1 [Compound 26, 5-[5-(6-Cyano-4-methyl-pyridin-3-yloxy)-3-methyl-3H-imidazo[4,5-b]pyridin-7-ylamino]-pyridine-2-carboxylic acid ethylamide]
IC50 [1]: 0.338 µM | IC50 [2]: 0.873 µM | IC50 [4]: 0.074 µM | IC50 [5, 8]: 1.53 µM

CN(c1cc(Nc2cc(N)ncn2)c2ncn(C)c2n1)C12CC(C1)C2 [Compound 18, N7-(6-Amino-pyrimidin-4-yl)-N5-bicyclo[1.1.1]pent-1-yl-3,N5-dimethyl-3H-imidazo[4,5-b]pyridine-5,7-diamine]
IC50 [1]: 0.294 µM | IC50 [2]: 0.0315 µM | IC50 [3]: 0.187 µM | IC50 [4]: 0.0305 µM | IC50 [5, 8]: 4.68 µM

CC(Oc1cc(Nc2cc(N)ncn2)c2ncn(C)c2n1)C1CC1 (centres unmarked) [Compound 72, N4-[5-(1-cyclopropylethoxy)-3-methyl-imidazo[4,5-b]pyridin-7-yl]pyrimidine-4,6-diamine]
IC50 [4]: 0.00141 µM | IC50 [6, 9]: 124 nM | IC50 [7, 10]: 57.2 nM | IC50 [5, 8]: 0.0277 µM

Cc1cc(C#N)ncc1Oc1cc(Nc2ccc(CN)cc2)c2ncn(C)c2n1 [Compound 57, 5-[7-[4-(aminomethyl)anilino]-3-methyl-imidazo[4,5-b]pyridin-5-yl]oxy-4-methyl-pyridine-2-carbonitrile formate salt]
IC50 [4]: 0.0454 µM | IC50 [6, 9]: 405 nM | IC50 [5, 8]: 7.46 µM

Cc1cc(C#N)ncc1Nc1cc(Nc2ccc(C(=O)N(C)C)cc2)c2ncn(C)c2n1 [Compound 66, 4-[[5-[(6-cyano-4-methyl-3-pyridyl)amino]-3-methyl-imidazo[4,5-b]pyridin-7-yl]amino]-N,N-dimethyl-benzamide]
IC50 [4]: 0.0117 µM | IC50 [6, 9]: 138 nM | IC50 [7, 10]: 205 nM | IC50 [5, 8]: 1.65 µM

Cc1cc(C#N)ncc1Oc1cc(Nc2ccc(CN(C)C)cn2)c2ncn(C)c2n1 [Compound 81, 5-[7-[[5-[(dimethylamino)methyl]pyridin-2-yl]amino]-3-methylimidazo[4,5-b]pyridin-5-yl]oxy-4-methylpyridine-2-carbonitrile formate salt]
IC50 [1]: 0.15 µM | IC50 [2]: 0.0104 µM | IC50 [3]: 0.386 µM | IC50 [4]: 0.00683 µM | IC50 [6, 9]: 56 nM | IC50 [7, 10]: 224 nM

Cc1cc(C#N)ncc1Oc1cc(Nc2ccc(C3(O)COC3)cc2)c2ncn(C)c2n1 [Compound 89, 5-[7-[4-(3-hydroxyoxetan-3-yl)anilino]-3-methylimidazo[4,5-b]pyridin-5-yl]oxy-4-methylpyridine-2-carbonitrile]
IC50 [1]: 0.0715 µM | IC50 [2]: 0.11 µM | IC50 [3]: 1.99 µM | IC50 [4]: 0.011 µM | IC50 [6, 9]: 266 nM | IC50 [7, 10]: 476 nM

Cn1cnc2c(Nc3ccc(S(C)(=O)=O)cn3)cc(OC(C3CC3)C(F)(F)F)nc21 (centres unmarked) [Compound 22, 5-(1-cyclopropyl-2,2,2-trifluoro-ethoxy)-3-methyl-N-(5-methylsulfonyl-2-pyridyl)imidazo[4,5-b]pyridin-7-amine]
IC50 [1]: 0.023 µM | IC50 [2]: 0.00335 µM | IC50 [3]: 0.0979 µM | IC50 [4]: 0.00307 µM | IC50 [6, 9]: 50 nM | IC50 [7, 10]: 22 nM

COC1CN(C(=O)c2ccc(Nc3cc(Oc4cnc(C#N)cc4C)nc4c3ncn4C)nn2)C1 [Compound 116, 5-[7-[[6-(3-methoxyazetidine-1-carbonyl)pyridazin-3-yl]amino]-3-methyl-imidazo[4,5-b]pyridin-5-yl]oxy-4-methyl-pyridine-2-carbonitrile]
IC50 [1]: 0.151 µM | IC50 [2]: 0.0283 µM | IC50 [3]: 1.2 µM | IC50 [4]: 0.00541 µM | IC50 [6, 9]: 113 nM | IC50 [7, 10]: 79 nM

COCCCN(c1cc(Nc2cc(N)ncn2)c2ncn(C)c2n1)c1cnc(C#N)cc1C [Compound 4, 5-[[7-(6-Amino-pyrimidin-4-ylamino)-3-methyl-3H-imidazo[4,5-b]pyridin-5-yl]-(3-methoxy-propyl)-amino]-4-methyl-pyridine-2-carbonitrile]
IC50 [1]: 0.0923 µM | IC50 [2]: 0.0164 µM | IC50 [3]: 0.784 µM | IC50 [4]: 0.00437 µM | IC50 [6, 9]: 91 nM | IC50 [7, 10]: 198 nM

Cc1cc(C#N)ncc1Oc1cc(Nc2ccc(C(=O)NCC(C)O)cn2)c2ncn(C)c2n1 (centres unmarked) [Compound 24, 6-[5-(6-Cyano-4-methyl-pyridin-3-yloxy)-3-methyl-3H-imidazo[4,5-b]pyridin-7-ylamino]-N-(2-hydroxy-propyl)-nicotinamide]
IC50 [4]: 0.00901 µM | IC50 [6, 9]: 151 nM | IC50 [5, 8]: 3.37 µM

CCNC(c1ccc(Nc2cc(Oc3cnc(C#N)cc3C)nc3c2ncn3C)nc1)C(F)(F)F (centres unmarked) [Compound 80, 5-[7-[[5-[1-(ethylamino)-2,2,2-trifluoroethyl]pyridin-2-yl]amino]-3-methylimidazo[4,5-b]pyridin-5-yl]oxy-4-methylpyridine-2-carbonitrile]
IC50 [1]: 0.0199 µM | IC50 [2]: 0.0052 µM | IC50 [3]: 0.392 µM | IC50 [4]: 0.00222 µM | IC50 [6, 9]: 93 nM | IC50 [7, 10]: 83 nM

Cc1cc(C#N)ncc1Oc1cc(Nc2ccc(S(C)(=O)=O)cc2)c2ncn(C)c2n1 [Compound 60, 4-methyl-5-[3-methyl-7-(4-methylsulfonylanilino)imidazo[4,5-b]pyridin-5-yl]oxy-pyridine-2-carbonitrile]
IC50 [4]: 0.00972 µM | IC50 [6, 9]: 73 nM | IC50 [5, 8]: 1.15 µM

COCCNc1cc(Nc2cc(Oc3cnc(C#N)cc3C)nc3c2ncn3C)ncn1 [Compound 31, 5-{7-[6-(2-Methoxy-ethylamino)-pyrimidin-4-ylamino]-3-methyl-3H-imidazo[4,5-b]pyridin-5-yloxy}-4-methyl-pyridine-2-carbonitrile]
IC50 [1]: 0.187 µM | IC50 [2]: 0.0438 µM | IC50 [3]: 1.05 µM | IC50 [4]: 0.00801 µM | IC50 [6, 9]: 94 nM | IC50 [7, 10]: 110 nM

Cc1cc(C#N)ncc1Oc1cc(Nc2ccc(C(=O)N(C)C)nn2)c2ncn(C)c2n1 [Compound 73, 6-[[5-[(6-cyano-4-methyl-3-pyridyl)oxy]-3-methyl-imidazo[4,5-b]pyridin-7-yl]amino]-N,N-dimethyl-pyridazine-3-carboxamide]
IC50 [4]: 0.00344 µM | IC50 [6, 9]: 81 nM | IC50 [7, 10]: 158 nM | IC50 [5, 8]: 0.199 µM

Cc1cc(S(C)(=O)=O)cc(F)c1Oc1cc(Nc2cc(N)ncn2)c2ncn(C)c2n1 [Compound 2, N-[5-(2-Fluoro-4-methanesulfonyl-6-methyl-phenoxy)-3-methyl-3H-imidazo[4,5-b]pyridin-7-yl]-pyrimidine-4,6-diamine]
IC50 ([6]; PBMC, read-out: IFNα signaling inhibitory potency IC50 (nM)): 87 nM | IC50 ([7]; NK92, read-out: IL12 pSTAT4 IC50 (nM)): 73.5 nM | IC50 ([5]; NK92, read-out: IL12 pSTAT4 IC50): 0.259 µM

Cc1cc(C#N)ncc1Oc1cc(Nc2ccc(N3CCNCC3)cn2)c2ncn(C)c2n1 [Compound 180, 4-methyl-5-[3-methyl-7-[(5-piperazin-1-yl-2-pyridyl)amino]imidazo[4,5-b]pyridin-5-yl]oxy-pyridine-2-carbonitrile]
IC50 [1]: 0.0817 µM | IC50 [2]: 0.0182 µM | IC50 [3]: 0.409 µM | IC50 [4]: 0.00661 µM | IC50 [6, 9]: 84 nM | IC50 [7, 10]: 769 nM
